Data: ChEMBL document CHEMBL3045793, “The synthesis, anti-inflammatory and antimicrobial activity evaluation of novel thioanalogs of 3,4-dihydrothiopyrimidin-2(1H)-one derivatives of N-aryl urea” (2012)
In brackets after ≈: the same amount, converted by molar mass. Activity calls are given as the source filed them. The calls are words filed in the database; no cut-off is given here.

Key:
Aspergillus flavus [1] = experiment: Antifungal activity against Aspergillus flavus by agar well diffusion method; assay type: functional
Fusarium solani [2] = experiment: Antifungal activity against Fusarium solani by agar well diffusion method; assay type: functional
Aspergillus niger [3] = experiment: Antifungal activity against Aspergillus niger by agar well diffusion method; assay type: functional
Candida albicans [4] = experiment: Antifungal activity against Candida albicans by agar well diffusion method; assay type: functional
Escherichia coli [5] = experiment: Antibacterial activity against Escherichia coli by agar well diffusion method; assay type: functional
Salmonella typhimurium [6] = experiment: Antibacterial activity against Salmonella enterica subsp. enterica serovar Typhimurium by agar well diffusion method; assay type: functional
Bacillus subtilis [7] = experiment: Antibacterial activity against Bacillus subtilis by agar well diffusion method; assay type: functional
Staphylococcus aureus [8] = experiment: Antibacterial activity against Staphylococcus aureus by agar well diffusion method; assay type: functional
THP-1 [9] = experiment: Anti-inflammatory activity in Homo sapiens (human) THP1 cells assessed as inhibition of LPS-induced IL-6 production preincubated at 10 uM for 30 min before LPS treatment measured after 24 hr by ELISA; assay type: functional
THP-1 [10] = experiment: Anti-inflammatory activity in Homo sapiens (human) THP1 cells assessed as inhibition of LPS-induced TNF-alpha production preincubated at 10 uM for 30 min before LPS treatment measured after 24 hr by ELISA; assay type: functional
Aspergillus flavus [11] = experiment: Antifungal activity against Aspergillus flavus up to 200 ug/ml by agar well diffusion method; assay type: functional, organism-based
Fusarium solani [12] = experiment: Antifungal activity against Fusarium solani up to 200 ug/ml by agar well diffusion method; assay type: functional, organism-based
Aspergillus niger [13] = experiment: Antifungal activity against Aspergillus niger up to 200 ug/ml by agar well diffusion method; assay type: functional, organism-based
Candida albicans [14] = experiment: Antifungal activity against Candida albicans up to 200 ug/ml by agar well diffusion method; assay type: functional, organism-based
Salmonella typhimurium [15] = experiment: Antibacterial activity against Salmonella enterica subsp. enterica serovar Typhimurium up to 200 ug/ml by agar well diffusion method; assay type: functional, organism-based
Escherichia coli [16] = experiment: Antibacterial activity against Escherichia coli up to 200 ug/ml by agar well diffusion method; assay type: functional, organism-based
Bacillus subtilis [17] = experiment: Antibacterial activity against Bacillus subtilis up to 200 ug/ml by agar well diffusion method; assay type: functional, organism-based
Staphylococcus aureus [18] = experiment: Antibacterial activity against Staphylococcus aureus up to 200 ug/ml by agar well diffusion method; assay type: functional, organism-based

CCOC(=O)C1=C(C)NC(=S)NC1c1ccc(NC(=S)Nc2ccccc2OC(F)(F)F)cc1 (stereo unspecified)
MIC (Aspergillus flavus [1]): 15 µg/mL (≈ 29.4 µM)
MIC (Fusarium solani [2]): 10 µg/mL (≈ 19.6 µM)
MIC (Aspergillus niger [3]): 30 µg/mL (≈ 58.8 µM)
MIC (Candida albicans [4]): 10 µg/mL (≈ 19.6 µM)
MIC (Escherichia coli [5]): 35 µg/mL (≈ 68.6 µM)
MIC (Salmonella typhimurium [6]): 10 µg/mL (≈ 19.6 µM)
MIC (Bacillus subtilis [7]): 20 µg/mL (≈ 39.2 µM)
MIC (Staphylococcus aureus [8]): 45 µg/mL (≈ 88.1 µM)
inhibition at 10 µM (THP-1 [9]): 54%
inhibition at 10 µM (THP-1 [10]): 27%

CCOC(=O)C1=C(C)NC(=S)NC1c1ccc(N)cc1 (stereo unspecified)
MIC (Aspergillus flavus [1]): 80 µg/mL (≈ 275 µM)
MIC (Fusarium solani [2]): 35 µg/mL (≈ 120 µM)
MIC (Aspergillus niger [3]): 55 µg/mL (≈ 189 µM)
MIC (Candida albicans [4]): 55 µg/mL (≈ 189 µM)
MIC (Escherichia coli [5]): 40 µg/mL (≈ 137 µM)
MIC (Salmonella typhimurium [6]): 45 µg/mL (≈ 154 µM)
MIC (Bacillus subtilis [7]): 85 µg/mL (≈ 292 µM)
MIC (Staphylococcus aureus [8]): 60 µg/mL (≈ 206 µM)
inhibition at 10 µM (THP-1 [9]): 3%
inhibition at 10 µM (THP-1 [10]): 0%

CCOC(=O)C1=C(C)NC(=S)NC1c1ccc(NC(=S)Nc2ccc(OC)cc2)cc1 (stereo unspecified)
MIC (Escherichia coli [5]): 10 µg/mL (≈ 21.9 µM)
MIC (Salmonella typhimurium [6]): 25 µg/mL (≈ 54.8 µM)
MIC (Bacillus subtilis [7]): 40 µg/mL (≈ 87.6 µM)
MIC (Staphylococcus aureus [8]): 10 µg/mL (≈ 21.9 µM)
inhibition at 10 µM (THP-1 [9]): 48%
inhibition at 10 µM (THP-1 [10]): 0%

CCOC(=O)C1=C(C)NC(=S)NC1c1ccc(NC(=S)Nc2ccccc2Cl)cc1 (stereo unspecified)
MIC (Aspergillus flavus [1]): 15 µg/mL (≈ 32.5 µM)
MIC (Fusarium solani [2]): 10 µg/mL (≈ 21.7 µM)
MIC (Aspergillus niger [3]): 10 µg/mL (≈ 21.7 µM)
MIC (Candida albicans [4]): 10 µg/mL (≈ 21.7 µM)
MIC (Escherichia coli [5]): 10 µg/mL (≈ 21.7 µM)
MIC (Salmonella typhimurium [6]): 20 µg/mL (≈ 43.4 µM)
MIC (Bacillus subtilis [7]): 35 µg/mL (≈ 75.9 µM)
MIC (Staphylococcus aureus [8]): 20 µg/mL (≈ 43.4 µM)
inhibition at 10 µM (THP-1 [9]): 36%
inhibition at 10 µM (THP-1 [10]): 0%

CCOC(=O)C1=C(C)NC(=S)NC1c1ccc(NC(=S)Nc2c(F)cccc2Cl)cc1 (stereo unspecified)
Activity (Aspergillus flavus [11]): inactive
Activity (Fusarium solani [12]): inactive
MIC (Aspergillus niger [3]): 85 µg/mL (≈ 177 µM)
MIC (Candida albicans [4]): 65 µg/mL (≈ 136 µM)
MIC (Escherichia coli [5]): 85 µg/mL (≈ 177 µM)
MIC (Salmonella typhimurium [6]): 60 µg/mL (≈ 125 µM)
MIC (Bacillus subtilis [7]): 80 µg/mL (≈ 167 µM)
MIC (Staphylococcus aureus [8]): 60 µg/mL (≈ 125 µM)
inhibition at 10 µM (THP-1 [9]): 56%
inhibition at 10 µM (THP-1 [10]): 42%

CCOC(=O)C1=C(C)NC(=S)NC1c1ccc(NC(=S)Nc2ccc(C)c(C)c2)cc1 (stereo unspecified)
Activity (Aspergillus flavus [11]): inactive
Activity (Fusarium solani [12]): inactive
Activity (Aspergillus niger [13]): inactive
Activity (Candida albicans [14]): inactive
Activity (Salmonella typhimurium [15]): inactive
Activity (Escherichia coli [16]): inactive
Activity (Bacillus subtilis [17]): inactive
Activity (Staphylococcus aureus [18]): inactive
inhibition at 10 µM (THP-1 [9]): 8%
inhibition at 10 µM (THP-1 [10]): 0%

CCOC(=O)C1=C(C)NC(=S)NC1c1ccc(NC(=S)Nc2c(F)cccc2C(F)(F)F)cc1 (stereo unspecified)
MIC (Aspergillus flavus [1]): 80 µg/mL (≈ 156 µM)
MIC (Fusarium solani [2]): 45 µg/mL (≈ 87.8 µM)
MIC (Aspergillus niger [3]): 30 µg/mL (≈ 58.5 µM)
MIC (Candida albicans [4]): 55 µg/mL (≈ 107 µM)
MIC (Escherichia coli [5]): 40 µg/mL (≈ 78 µM)
MIC (Salmonella typhimurium [6]): 45 µg/mL (≈ 87.8 µM)
MIC (Bacillus subtilis [7]): 55 µg/mL (≈ 107 µM)
MIC (Staphylococcus aureus [8]): 35 µg/mL (≈ 68.3 µM)
inhibition at 10 µM (THP-1 [9]): 30%
inhibition at 10 µM (THP-1 [10]): 0%

CCOC(=O)C1=C(C)NC(=S)NC1c1ccc(NC(=S)Nc2c(C)cccc2F)cc1 (stereo unspecified)
Activity (Bacillus subtilis [17]): inactive
MIC (Aspergillus flavus [1]): 60 µg/mL (≈ 131 µM)
MIC (Fusarium solani [2]): 65 µg/mL (≈ 142 µM)
MIC (Aspergillus niger [3]): 55 µg/mL (≈ 120 µM)
MIC (Candida albicans [4]): 50 µg/mL (≈ 109 µM)
MIC (Escherichia coli [5]): 70 µg/mL (≈ 153 µM)
MIC (Salmonella typhimurium [6]): 90 µg/mL (≈ 196 µM)
MIC (Staphylococcus aureus [8]): 90 µg/mL (≈ 196 µM)
inhibition at 10 µM (THP-1 [9]): 16%
inhibition at 10 µM (THP-1 [10]): 0%

CCOC(=O)C1=C(C)NC(=S)NC1c1ccc(NC(=S)Nc2cccc(C(F)(F)F)c2)cc1 (stereo unspecified)
MIC (Aspergillus flavus [1]): 15 µg/mL (≈ 30.3 µM)
MIC (Fusarium solani [2]): 15 µg/mL (≈ 30.3 µM)
MIC (Aspergillus niger [3]): 25 µg/mL (≈ 50.5 µM)
MIC (Candida albicans [4]): 15 µg/mL (≈ 30.3 µM)
MIC (Escherichia coli [5]): 20 µg/mL (≈ 40.4 µM)
MIC (Salmonella typhimurium [6]): 15 µg/mL (≈ 30.3 µM)
MIC (Bacillus subtilis [7]): 35 µg/mL (≈ 70.8 µM)
MIC (Staphylococcus aureus [8]): 20 µg/mL (≈ 40.4 µM)
inhibition at 10 µM (THP-1 [9]): 16%
inhibition at 10 µM (THP-1 [10]): 0%

CCOC(=O)C1=C(C)NC(=S)NC1c1ccc(NC(=S)Nc2c(Cl)cccc2C(F)(F)F)cc1 (stereo unspecified)
Activity (Fusarium solani [12]): inactive
Activity (Bacillus subtilis [17]): inactive
MIC (Aspergillus flavus [1]): 90 µg/mL (≈ 170 µM)
MIC (Aspergillus niger [3]): 90 µg/mL (≈ 170 µM)
MIC (Candida albicans [4]): 85 µg/mL (≈ 161 µM)
MIC (Escherichia coli [5]): 90 µg/mL (≈ 170 µM)
MIC (Salmonella typhimurium [6]): 90 µg/mL (≈ 170 µM)
MIC (Staphylococcus aureus [8]): 65 µg/mL (≈ 123 µM)
inhibition at 10 µM (THP-1 [9]): 62%
inhibition at 10 µM (THP-1 [10]): 46%

CCOC(=O)C1=C(C)NC(=S)NC1c1ccc(NC(=O)Nc2ccccc2Oc2ccccc2)cc1 (stereo unspecified)
MIC (Aspergillus flavus [1]): 35 µg/mL (≈ 69.6 µM)
MIC (Fusarium solani [2]): 45 µg/mL (≈ 89.5 µM)
MIC (Aspergillus niger [3]): 60 µg/mL (≈ 119 µM)
MIC (Candida albicans [4]): 40 µg/mL (≈ 79.6 µM)
MIC (Escherichia coli [5]): 85 µg/mL (≈ 169 µM)
MIC (Salmonella typhimurium [6]): 65 µg/mL (≈ 129 µM)
MIC (Bacillus subtilis [7]): 60 µg/mL (≈ 119 µM)
MIC (Staphylococcus aureus [8]): 55 µg/mL (≈ 109 µM)
inhibition at 10 µM (THP-1 [9]): 42%
inhibition at 10 µM (THP-1 [10]): 0%

CCOC(=O)C1=C(C)NC(=S)NC1c1ccc(NC(=S)Nc2ccc(F)c(Cl)c2)cc1 (stereo unspecified)
Activity (Aspergillus flavus [11]): inactive
Activity (Aspergillus niger [13]): inactive
Activity (Candida albicans [14]): inactive
Activity (Salmonella typhimurium [15]): inactive
Activity (Escherichia coli [16]): inactive
Activity (Bacillus subtilis [17]): inactive
MIC (Fusarium solani [2]): 95 µg/mL (≈ 198 µM)
MIC (Staphylococcus aureus [8]): 80 µg/mL (≈ 167 µM)
inhibition at 10 µM (THP-1 [9]): 58%
inhibition at 10 µM (THP-1 [10]): 0%

CCOC(=O)C1=C(C)NC(=S)NC1c1ccc(NC(=S)Nc2ccc(C(C)C)cc2)cc1 (stereo unspecified)
MIC (Aspergillus flavus [1]): 95 µg/mL (≈ 203 µM)
MIC (Fusarium solani [2]): 70 µg/mL (≈ 149 µM)
MIC (Aspergillus niger [3]): 80 µg/mL (≈ 171 µM)
MIC (Candida albicans [4]): 80 µg/mL (≈ 171 µM)
MIC (Escherichia coli [5]): 90 µg/mL (≈ 192 µM)
MIC (Salmonella typhimurium [6]): 90 µg/mL (≈ 192 µM)
MIC (Bacillus subtilis [7]): 55 µg/mL (≈ 117 µM)
MIC (Staphylococcus aureus [8]): 70 µg/mL (≈ 149 µM)
inhibition at 10 µM (THP-1 [9]): 90%
inhibition at 10 µM (THP-1 [10]): 61%
